From publication PMC8364686, “Safety, tolerability, pharmacokinetics and pharmacodynamics of single oral doses of BI 187004, an inhibitor of 11beta-hydroxysteroid dehydrogenase-1, in healthy male volunteers with overweight or obesity” (Clinical Diabetes and Endocrinology, 2021)
Several values for one entry are separate records, joined by “and”; a condition that tells them apart may be missing. Identical values can stand only once.

Experiment: Plasma pharmacokinetics of BI 187004 after single oral doses (LC–MS/MS)
Settings: for BI 187004 plasma concentrations: individual subjects
[1] = male, human, plasma, po, 2.5 mg
[2] = male, human, plasma, po, 2.5 mg, Plasma concentration Mean, 2.5 mg single oral
[3] = male, human, plasma, po, 2.5 mg, Plasma concentration Median, 2.5 mg single oral
[4] = male, human, plasma, po, 2.5 mg, Plasma concentration gMean, 2.5 mg single oral

SMILES: N#Cc1ccc2c(c1)[C@H]1CCCN(C(=O)c3ccc4[nH]cnc4c3)[C@H]1C2 [BI 187004]
- Plasma concentration, individual subjects (2.5 mg single oral, planned time 0.5 h): BLQ (Below Limit of Quantification (<3.00 nmol/L)) and 5.84 nmol/L and 15.8 nmol/L and 8.84 nmol/L
- Plasma concentration, individual subjects (2.5 mg single oral, planned time 1 h): BLQ (Below Limit of Quantification (<3.00 nmol/L)) and 6.77 nmol/L and 28.4 nmol/L and 17.6 nmol/L and 7.86 nmol/L and 5.64 nmol/L
- Plasma concentration, individual subjects (2.5 mg single oral, planned time 1.5 h): BLQ (Below Limit of Quantification (<3.00 nmol/L)) and 6.06 nmol/L and 17.2 nmol/L and 14.9 nmol/L and 12.1 nmol/L and 5.62 nmol/L
- Plasma concentration, individual subjects (2.5 mg single oral, planned time 2 h): BLQ (Below Limit of Quantification (<3.00 nmol/L)) and 4.97 nmol/L and 13.8 nmol/L and 11.0 nmol/L and 9.41 nmol/L and 4.67 nmol/L
- Plasma concentration, individual subjects (2.5 mg single oral, planned time 2.5 h): BLQ (Below Limit of Quantification (<3.00 nmol/L)) and 4.45 nmol/L and 12.5 nmol/L and 10.1 nmol/L and 8.45 nmol/L
- Plasma concentration, individual subjects (2.5 mg single oral, planned time 3 h): BLQ (Below Limit of Quantification (<3.00 nmol/L)) and 3.48 nmol/L and 11.9 nmol/L and 8.37 nmol/L and 6.66 nmol/L and 3.95 nmol/L
- Plasma concentration, individual subjects (2.5 mg single oral, planned time 4 h): BLQ (Below Limit of Quantification (<3.00 nmol/L)) and 3.40 nmol/L and 10.7 nmol/L and 7.79 nmol/L and 6.03 nmol/L and 4.09 nmol/L
- Plasma concentration, individual subjects (2.5 mg single oral, planned time 5 h): BLQ (Below Limit of Quantification (<3.00 nmol/L)) and 9.77 nmol/L and 7.70 nmol/L and 6.49 nmol/L and 3.91 nmol/L
- Plasma concentration, individual subjects (2.5 mg single oral, planned time 6 h): BLQ (Below Limit of Quantification (<3.00 nmol/L)) and 7.52 nmol/L and 6.22 nmol/L and 5.34 nmol/L and 3.36 nmol/L
- Plasma concentration, individual subjects (2.5 mg single oral, planned time 8 h): BLQ (Below Limit of Quantification (<3.00 nmol/L)) and 6.55 nmol/L and 5.06 nmol/L
- Plasma concentration, individual subjects (2.5 mg single oral, planned time 10 h): BLQ (Below Limit of Quantification (<3.00 nmol/L)) and 5.19 nmol/L and 3.85 nmol/L and 3.08 nmol/L
- Plasma concentration, individual subjects (2.5 mg single oral, planned time 12 h): BLQ (Below Limit of Quantification (<3.00 nmol/L)) and 4.76 nmol/L and 4.10 nmol/L and 3.34 nmol/L
- Plasma concentration, individual subjects (2.5 mg single oral, planned time 24 h): BLQ (Below Limit of Quantification (<3.00 nmol/L)) and 6.66 nmol/L and 5.03 nmol/L and 3.69 nmol/L and 3.73 nmol/L
- Plasma concentration, individual subjects (2.5 mg single oral, planned time 36 h): BLQ (Below Limit of Quantification (<3.00 nmol/L)) and 3.88 nmol/L
- Plasma concentration, individual subjects (2.5 mg single oral, planned time 48 h): BLQ (Below Limit of Quantification (<3.00 nmol/L)) and 5.01 nmol/L and 4.22 nmol/L and 3.14 nmol/L
- Plasma concentration, individual subjects (2.5 mg single oral, planned time 72 h): BLQ (Below Limit of Quantification (<3.00 nmol/L)) and 3.91 nmol/L
- Plasma concentration, individual subjects (2.5 mg single oral, planned time 96 h): BLQ (Below Limit of Quantification (<3.00 nmol/L))
- Plasma concentration, individual subjects (2.5 mg single oral, planned time –0.5 h): BLQ (Below Limit of Quantification (<3.00 nmol/L))
- CL/F gMean (%gCV) (5 mg single oral dose): 5.82 (23.0) L/h
- Plasma concentration, individual subjects (5 mg single oral, planned time 0.5 h): 17.6 nM and 16.1 nM
- Plasma concentration, individual subjects (5 mg single oral, planned time 1 h): 139 nM and 113 nM
- Plasma concentration, individual subjects (5 mg single oral, planned time 1.5 h): 137 nM and 105 nM
- Plasma concentration, individual subjects (5 mg single oral, planned time 2 h): 125 nM and 89.1 nM
- Plasma concentration, individual subjects (5 mg single oral, planned time 2.5 h): 113 nM and 99.4 nM
- Plasma concentration, individual subjects (5 mg single oral, planned time 3 h): 104 nM and 89.4 nM
- Plasma concentration, individual subjects (5 mg single oral, planned time 4 h): 97.2 nM and 80.1 nM
- Plasma concentration, individual subjects (5 mg single oral, planned time 5 h): 88.2 nM and 69.3 nM
- Plasma concentration, individual subjects (5 mg single oral, planned time 6 h): 74.1 nM and 59.0 nM and 90.2 nM
- Plasma concentration, individual subjects (5 mg single oral, planned time 8 h): 67.1 nM and 53.5 nM and 81.4 nM
- Plasma concentration, individual subjects (5 mg single oral, planned time 10 h): 63.2 nM and 54.2 nM and 38.5 nM and 58.5 nM
- Plasma concentration, individual subjects (5 mg single oral, planned time 12 h): 54.1 nM and 51.5 nM and 32.5 nM
- Plasma concentration, individual subjects (5 mg single oral, planned time 24 h): 30.9 nM and 21.5 nM
- Plasma concentration, individual subjects (5 mg single oral, planned time 36 h): 19.4 nM and 14.0 nM and 9.68 nM
- Plasma concentration, individual subjects (5 mg single oral, planned time 48 h): 20.9 nM and 11.6 nM and 10.6 nM
- Plasma concentration, individual subjects (5 mg single oral, planned time 72 h): 12.4 nM and 5.72 nM and 5.44 nM
- Plasma concentration, individual subjects (5 mg single oral, planned time 96 h): 7.71 nM and 4.37 nM and 3.26 nM
- Plasma concentration, individual subjects (5 mg single oral, planned time –0.5 h): BLQ (Below Limit of Quantification (<3.00 nmol/L))
- CL/F gMean (%gCV) (10 mg single oral dose): 4.93 (29.2) L/h
- Plasma concentration, individual subjects (10 mg single oral, planned time –0.5 h): BLQ (Below Limit of Quantification (<3.00 nmol/L))
- CL/F gMean (%gCV) (20 mg single oral dose): 4.70 (41.2) L/h
- BI 187004 plasma concentrations (20 mg single oral, planned time 72 h): BLQ (Below Limit of Quantification (<3.00 nmol/L))
- BI 187004 plasma concentrations (20 mg single oral, planned time 96 h): BLQ (Below Limit of Quantification (<3.00 nmol/L))
- BI 187004 plasma concentrations (20 mg single oral, planned time –0.5 h): BLQ (Below Limit of Quantification (<3.00 nmol/L))
- CL/F gMean (%gCV) (40 mg single oral dose): 4.50 (36.1) L/h
- BI 187004 plasma concentrations (40 mg single oral, planned time –0.5 h): BLQ (Below Limit of Quantification (<3.00 nmol/L))
- CL/F gMean (%gCV) (80 mg single oral dose): 4.56 (40.2) L/h
- BI 187004 plasma concentrations (80 mg single oral, planned time –0.5 h): BLQ (Below Limit of Quantification (<3.00 nmol/L))
- CL/F gMean (%gCV) (160 mg single oral dose): 4.21 (19.5) L/h
- BI 187004 plasma concentrations (160 mg single oral, planned time 96 h): BLQ (Below Limit of Quantification (<3.00 nmol/L))
- BI 187004 plasma concentrations (160 mg single oral, planned time –0.5 h): BLQ (Below Limit of Quantification (<3.00 nmol/L))
- Time to Cmax, single subject (subject 64) (240 mg): 24 h
- CL/F gMean (%gCV) (240 mg single oral dose): 6.44 (53.4) L/h
- BI 187004 plasma concentrations (240 mg single oral, planned time -0.5 h): BLQ (Below Limit of Quantification (<3.00 nmol/L))
- CL/F gMean (%gCV) (360 mg single oral dose): 5.48 (25.4) L/h
- BI 187004 plasma concentrations (360 mg single oral, planned time –0.5 h): BLQ (Below Limit of Quantification (<3.00 nmol/L))
- Apparent clearance (CL/F), range across dose groups (5–360 mg): 4.21—6.44 L/h
- concentration at 96 h (male, human, in vivo, po, 240 mg): 18.4 nM
- Vd/F (male, human, plasma, oral): 87.9 to 281 L
- concentration at 10 h (male, human, plasma, oral, 10 mg, Plasma C10 gMean (range), 10 mg single dose): 174 nM
- concentration at 24 h (male, human, plasma, oral, 10 mg, Plasma C24 gMean (range), 10 mg single dose, 24 h): 71.3 nM
- concentration at 10 h (male, human, plasma, oral, 20 mg, Plasma C10 gMean (range), 20 mg single dose): 382 nM
- concentration at 24 h (male, human, plasma, oral, 20 mg, Plasma C24 gMean (range), 20 mg single dose, 24 h): 161 nM
- concentration at 10 h (male, human, plasma, oral, 40 mg, Plasma C10 gMean (range), 40 mg single dose): 796 nM
- concentration at 24 h (male, human, plasma, oral, 40 mg, Plasma C24 gMean (range), 40 mg single dose, 24 h): 321 nM
- concentration at 10 h (male, human, plasma, oral, 80 mg, Plasma C10 gMean (range), 80 mg single dose): 1530 nM
- concentration at 24 h (male, human, plasma, oral, 80 mg, Plasma C24 gMean (range), 80 mg single dose, 24 h): 878 nM
- concentration at 10 h (male, human, plasma, oral, 160 mg, Plasma C10 gMean (range), 160 mg single dose): 3000 nM
- concentration at 24 h (male, human, plasma, oral, 160 mg, Plasma C24 gMean (range), 160 mg single dose, 24 h): 1630 nM
- concentration at 10 h (male, human, plasma, oral, 240 mg, Plasma C10 gMean (range), 240 mg single dose): 2600 nM
- concentration at 24 h (male, human, plasma, oral, 240 mg, Plasma C24 gMean (range), 240 mg single dose, 24 h): 2130 nM
- concentration at 10 h (male, human, plasma, oral, 360 mg, Plasma C10 gMean (range), 360 mg single dose): 5300 nM
- concentration at 24 h (male, human, plasma, oral, 360 mg, Plasma C24 gMean (range), 360 mg single dose, 24 h): 2690 nM
- Tmax (male, human, plasma, po): 1 to 1.5 h
- AUC(0-t) [1]: 0.212 µM·h
- Cmax [1]: 11.8 nM
- Tmax [1]: 1 h
- concentration at 24 h (male, human, plasma, po, 2.5 mg, C24 gMean (%gCV), 2.5 mg single oral dose): 4.54 nM
- concentration at 1 h [2]: 13.3 nM
- concentration at 1.5 h [2]: 11.2 nM
- concentration at 2 h [2]: 8.77 nM
- concentration at 2.5 h [2]: 7.99 nM
- concentration at 3 h [2]: 6.87 nM
- concentration at 4 h [2]: 6.4 nM
- concentration at 5 h [2]: 6.97 nM
- concentration at 6 h [2]: 5.61 nM
- concentration at 10 h [2]: 4.53 nM
- concentration at 12 h [2]: 4.66 nM
- concentration at 24 h (male, human, plasma, po, 2.5 mg, Plasma concentration Mean, 2.5 mg single oral, 24 h): 4.66 nM
- concentration at 48 h [2]: 3.99 nM
- concentration at 1 h [3]: 7.86 nM
- concentration at 1.5 h [3]: 12.1 nM
- concentration at 2 h [3]: 9.41 nM
- concentration at 2.5 h [3]: 8.45 nM
- concentration at 3 h [3]: 6.66 nM
- concentration at 4 h [3]: 6.03 nM
- concentration at 5 h [3]: 7.1 nM
- concentration at 6 h [3]: 5.78 nM
- concentration at 10 h [3]: 4.52 nM
- concentration at 12 h [3]: 4.43 nM
- concentration at 24 h (male, human, plasma, po, 2.5 mg, Plasma concentration Median, 2.5 mg single oral, 24 h): 4.19 nM
- concentration at 48 h [3]: 3.9 nM
- concentration at 1 h [4]: 10.8 nM
- concentration at 1.5 h [4]: 10.1 nM
- concentration at 2 h [4]: 8.02 nM
